target: T1, interaction between biotinylated human S100A9 and human RAGE-Fc (Homo sapiens, UniProt P06702); test: AlphaScreen inhibition assay, biot-hS100A9:hRAGE-Fc; type: binding; settings: biot-hS100A9 pre-incubated with compound 1 h, assay buffer with CaCl2 and ZnCl2
T1 construct: made in house; host or cells: E. coli
T1 sequence (P06702 1-114): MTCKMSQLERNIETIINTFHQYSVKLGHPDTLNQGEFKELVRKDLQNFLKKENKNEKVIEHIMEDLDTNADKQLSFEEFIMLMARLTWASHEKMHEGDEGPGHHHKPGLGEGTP
From the text: Inhibition Assay, Biot-hS100A9:hRAGE-Fc
The AlphaScreen (Amplified Luminescent Proximity Homogeneous Assay) contains two types of beads, Alpha Donor beads and Acceptor beads (PerkinElmer). Upon laser excitation at 680 nm a photosensitizer in the Donor bead converts ambient oxygen to a more excited singlet state. The singlet oxygen molecule diffuses (maximum 200 nm) to react with a thioxene derivative in the Acceptor bead and generates a chemiluminescence reaction. Fluorophores in the Acceptor bead subsequently emit light at 520-620 nm which can be detected in the EnVision® Multilabel plate Reader (PerkinElmer). The beads are light sensitive and all work with the beads is performed under subdued light conditions or using green filters on light sources (Roscolux Chroma Green #389, Rosco).
In the AlphaScreen Inhibition Assay described here, protein A (Staphylococcus aureus) conjugated Acceptor beads are used together with streptavidin coated Donor beads (Perkin Elmer 6760617M). The Acceptor beads are pre-incubated with Fc-tagged recombinant human RAGE (rhRAGE-Fc) allowing binding of the rhRAGE-Fc to protein A on the beads. Biotinylated human S100A9 (biot-hS100A9) is pre-incubated with the low molecular test compounds. The pre-mixes are then added to the wells of a micro-plate and incubated allowing interaction between biot-hS100A9 and rhRAGE-Fc. Subsequent addition of streptavidin coated Donor beads causes binding of the streptavidin to the biotinylated hS100A9. After an additional incubation the signal is measured.
Without inhibitory compounds, the interaction of biot-hS100A9 to rhRAGE-Fc will bring the Acceptor and Donor beads in close proximity thus generating a high signal. With an inhibitor present the complex will not form resulting in a decreased signal. The assay is illustrated in FIG. 1.
Chemicals and Reagents. • AlphaScreen® General IgG (Protein A) Detection Kit, (PerkinElmer 6760617M) • HBS-P buffer (GE Healthcare, BR-1003-68) • HBS-N buffer (GE Healthcare, BR-1003-69) • CaCl2 in HBS-P • ZnCl2 in Milli-Q water • DMSO • Biotinylated hS100A9, (biotinylated via cystein by EZ-link Iodoacetyl-PEG2-Biotin reagent (Pierce no. 21334), in HBS-N • rhRAGE-Fc (R&D Systems, 1145-RG-50), in HBS-P
The AlphaScreen assay method is used for screening of the inhibitory effect of different compound samples at fixed concentrations or for IC50 determination by varying the compound concentrations. Samples of test compounds and references are prepared from solutions in DMSO. Relevant reference inhibitors and DMSO are used as controls for defined inhibition and non-inhibition, respectively in the assay. The percent inhibition in assay for test compounds and references are calculated by comparing their obtained assay signals with the signal values for the control with only DMSO (no compound).
Assay concentration of biotinylated hS100A9 and rhRAGE-Fc are batch dependent, and are determined and defined by separate cross-titration experiments using this AlphaScreen inhibition method to verify the optimal setup regarding signal strength and achievement of a defined inhibition with relevant reference compounds. The Final assay concentrations of Acceptor and Donor beads are 20 μg/mL.
Assay buffer is prepared by adding CaCl2 and ZnCl2 to HBS-P and is used freshly prepared in the experiment.
Biotin-hS100A9 solution for the experiment is prepared by dilution of appropriate amount of stock solution biot-hS100A9 in assay buffer (with CaCl2 and ZnCl2) and incubation in room temperature for 30 minutes.
rhRAGE-Fc solution for the experiment is prepared by dilution appropriate amount of rhRAGE-Fc stock in assay buffer.
Protein A Acceptor beads are diluted in assay buffer and are added to an equal volume of the prepared diluted rhRAGE-Fc solution. The beads are light sensitive. The vial is covered with aluminum foil and incubated at room temperature in the dark until biot-hS100A9+compound incubation is finished (see below). […]

| Structure (SMILES) | IC50 |
| --- | --- |
| O=C(O)c1cn2c3c(sc2n1)CCCCC3 [Example 37, 7-Thia-2,5-diazatricyclo[6.5.0.0^2,6]trideca-1(8),3,5-triene-4-carboxylic acid] | 1050 nM |
| O=C(O)c1cn2c(n1)sc1c(Cl)c(Cl)ccc12 [Example 1, 9,10-Dichloro-7-thia-2,5-diazatricyclo[6.4.0.0^2,6]dodeca-1(8),3,5,9,11-pentaene-4-carboxylic acid] | 130 nM |
| CC1(C)Cc2c(sc3nc(C(=O)NS(C)(=O)=O)cn23)C(C)(C)C1 [Example 53, N-Methanesulfonyl-9,9,11,11-tetramethyl-7-thia-2,5-diazatricyclo[6.4.0.0^2,6]dodeca-1(8),3,5-triene-4-carboxamide] | 480 nM |
| CC(C)(C)C1CCc2c(sc3nc(C(=O)NS(=O)(=O)CCCN4CCOCC4)cn23)C1 (stereo not drawn) [Example 51, 10-tert-Butyl-N-[3-(morpholin-4-yl)propanesulfonyl]-7-thia-2,5-diazatricyclo[6.4.0.0^2,6]dodeca-1(8),3,5-triene-4-carboxamide] | 490 nM |
| CC(C)(C)C1CCc2c(sc3nc(CC(=O)O)cn23)C1 (stereo not drawn) [Example 45, 2-{10-tert-Butyl-7-thia-2,5-diazatricyclo[6.4.0.0^2,6]dodeca-1(8),3,5-trien-4-yl}acetic acid] | 3100 nM |
| CC(C)(C)Nc1c(C(=O)O)nc2sc3c(n12)CCC(C(C)(C)C)C3 (stereo not drawn) [Example 40, 10-tert-Butyl-3-(tert-butylamino)-7-thia-2,5-diazatricyclo[6.4.0.0^2,6]dodeca-1(8),3,5-triene-4-carboxylic acid] | 460 nM |
| O=C(NS(=O)(=O)CCCO)c1cn2c(n1)sc1c(Cl)c(Cl)ccc12 [Example 28, 9,10-Dichloro-N-(3-hydroxypropanesulfonyl)-7-thia-2,5-diazatricyclo[6.4.0.0^2,6]dodeca-1(8),3,5,9,11-pentaene-4-carboxamide] | 170 nM |
| CC1(C)CCc2c(sc3nc(C(=O)O)cn23)C1 [Example 33, 10,10-Dimethyl-7-thia-2,5-diazatricyclo[6.4.0.0^2,6]dodeca-1(8),3,5-triene-4-carboxylic acid] | 830 nM |
| CC(C)(C)Nc1c(C(=O)O)nc2sc3cc(OC(F)(F)F)ccc3n12 [Example 18, 3-(tert-Butylamino)-10-(trifluoromethoxy)-7-thia-2,5-diazatricyclo[6.4.0.0^2,6]dodeca-1(8),3,5,9,11-pentaene-4-carboxylic acid] | 1030 nM |
| CS(=O)(=O)NC(=O)c1cn2c(n1)sc1c(Cl)c(Cl)ccc12 [Example 21, 9,10-Dichloro-N-methanesulfonyl-7-thia-2,5-diazatricyclo[6.4.0.0^2,6]dodeca-1(8),3,5,9,11-pentaene-4-carboxamide] | 180 nM |
| O=C(O)c1cn2c(n1)sc1c(Cl)ccc(Cl)c12 [Example 197, 9,12-Dichloro-7-thia-2,5-diazatricyclo[6.4.0.0^2,6]dodeca-1(8),3,5,9,11-pentaene-4-carboxylic acid] | 1440 nM |

Next, values leading:

| IC50 | Structure (SMILES) |
| --- | --- |
| 90 nM | Cc1c(C(=O)O)nc2sc3c(Cl)c(F)ccc3n12 [Example 234, 9-Chloro-10-fluoro-3-methyl-7-thia-2,5-diazatricyclo[6.4.0.0^2,6]dodeca-1(8),3,5,9,11-pentaene-4-carboxylic acid] |
| 890 nM | CON(C)Cc1c(C(=O)O)nc2sc3c(n12)CCC(C(C)(C)C)C3 (stereo not drawn) [Example 257, 10-tert-Butyl-3-{[methoxy(methyl)amino]methyl}-7-thia-2,5-diazatricyclo[6.4.0.0^2,6]dodeca-1(8),3,5-triene-4-carboxylic acid] |
| 680 nM | O=C(O)[C@H]1CN2C(=N1)Sc1c2ccc(F)c1Cl (single isomer, unassigned) [Example 237] |
| 200 nM | CS(=O)(=O)Nc1c(C(=O)O)nc2sc3c(Cl)c(F)ccc3n12 [Example 232, 9-Chloro-10-fluoro-3-methanesulfonamido-7-thia-2,5-diazatricyclo[6.4.0.0^2,6]dodeca-1(8),3,5,9,11-pentaene-4-carboxylic acid] |
| 1270 nM | O=C(O)C1CN2C(=N1)Sc1c2cc(OCCN2CCOCC2)c(Cl)c1Cl (stereo not drawn) [Example 285, 9,10-Dichloro-11-[2-(morpholin-4-yl)ethoxy]-7-thia-2,5-diazatricyclo[6.4.0.0^2,6]dodeca-1(8),5,9,11-tetraene-4-carboxylic acid] |
| 1300 nM | O=C(O)[C@@H]1CN2C(=N1)Sc1c2ccc(F)c1Cl (single isomer, unassigned) [Example 236] |
| 1580 nM | COc1ccc2c(sc3nc(C(=O)O)cn32)c1Cl [Example 218, 9-Chloro-10-methoxy-7-thia-2,5-diazatricyclo[6.4.0.0^2,6]dodeca-1(8),3,5,9,11-pentaene-4-carboxylic acid] |
| 740 nM | C#Cc1c(C(=O)O)nc2sc3c(n12)CC(C)(C)CC3(C)C [Example 229, 3-Ethynyl-9,9,11,11-tetramethyl-7-thia-2,5-diazatricyclo[6.4.0.0^2,6]dodeca-1(8),3,5-triene-4-carboxylic acid] |
| 960 nM | CC(C)(C)c1ccc2c(c1)sc1nc(C(=O)O)cn12 [Example 206, 10-tert-Butyl-7-thia-2,5-diazatricyclo[6.4.0.0^2,6]dodeca-1(8),3,5,9,11-pentaene-4-carboxylic acid] |
| 1530 nM | COc1ccccc1-c1c(C(=O)O)nc2sc3c(n12)CC(C)(C)CC3(C)C [Example 247, 3-(2-Methoxyphenyl)-9,9,11,11-tetramethyl-7-thia-2,5-diazatricyclo[6.4.0.0^2,6]dodeca-1(8),3,5-triene-4-carboxylic acid] |
| 760 nM | C=C(C)c1c(C(=O)O)nc2sc3c(n12)CC(C)(C)CC3(C)C [Example 287, 9,9,11,11-Tetramethyl-3-(prop-1-en-2-yl)-7-thia-2,5-diazatricyclo[6.4.0.0^2,6]dodeca-1(8),3,5-triene-4-carboxylic acid] |
| 170 nM | O=C(NS(=O)(=O)c1ccccc1)C1CN2C(=N1)Sc1c2ccc(F)c1Cl (stereo not drawn) [Example 278, N-(Benzenesulfonyl)-9-chloro-10-fluoro-7-thia-2,5-diazatricyclo[6.4.0.0^2,6]dodeca-1(8),5,9,11-tetraene-4-carboxamide] |
| 1090 nM | CC(=O)N1CCN(Cc2c(C(=O)O)nc3sc4c(n23)CCC(C(C)(C)C)C4)CC1 (stereo not drawn) [Example 275, 3-[(4-Acetylpiperazin-1-yl)methyl]-10-tert-butyl-7-thia-2,5-diazatricyclo[6.4.0.0^2,6]dodeca-1(8),3,5-triene-4-carboxylic acid] |
| 1000 nM | O=C(O)c1cn2c(n1)sc1c(Cl)c(N3CCCC3)ccc12 [Example 248, 9-Chloro-10-(pyrrolidin-1-yl)-7-thia-2,5-diazatricyclo[6.4.0.0^2,6]dodeca-1(8),3,5,9,11-pentaene-4-carboxylic acid] |
| 1680 nM | CC1(C)Cc2c(sc3nc(C(=O)O)c(C4CNC4)n23)C(C)(C)C1 [Example 235, 3-(Azetidin-3-yl)-9,9,11,11-tetramethyl-7-thia-2,5-diazatricyclo[6.4.0.0^2,6]dodeca-1(8),3,5-triene-4-carboxylic acid] |
| 770 nM | CS(=O)(=O)NC(=O)c1cn2c(n1)sc1c(Cl)c(OC(F)(F)F)ccc12 [Example 220, 9-Chloro-N-methanesulfonyl-10-(trifluoromethoxy)-7-thia-2,5-diazatricyclo[6.4.0.0^2,6]dodeca-1(8),3,5,9,11-pentaene-4-carboxamide] |
